From PubChem BioAssay AID2366 (The Scripps Research Institute Molecular Screening Center, 2010) come the findings set out here.

The structures appear in SMILES notation. Calls of active or inactive are those of the source.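 Rule for the calls: active = compounds picked for the later follow-up tests because of their potency and selectivity; inactive = compounds skipped in follow-up as weaker or less selective.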

The target of this assay is Protein phosphatase methylesterase 1 (Homo sapiens) (UniProt Q9Y570). Nature of the assay: PME-1 inhibitor potency by in-gel ABPP, dose response, selectivity assay for PME-1 inhibitor project, cell lysate, mouse brain cytosol, FP-rhodamine (AID 2366).
Sequence of Protein phosphatase methylesterase 1 (Homo sapiens) (Q9Y570 whole entry, looked up): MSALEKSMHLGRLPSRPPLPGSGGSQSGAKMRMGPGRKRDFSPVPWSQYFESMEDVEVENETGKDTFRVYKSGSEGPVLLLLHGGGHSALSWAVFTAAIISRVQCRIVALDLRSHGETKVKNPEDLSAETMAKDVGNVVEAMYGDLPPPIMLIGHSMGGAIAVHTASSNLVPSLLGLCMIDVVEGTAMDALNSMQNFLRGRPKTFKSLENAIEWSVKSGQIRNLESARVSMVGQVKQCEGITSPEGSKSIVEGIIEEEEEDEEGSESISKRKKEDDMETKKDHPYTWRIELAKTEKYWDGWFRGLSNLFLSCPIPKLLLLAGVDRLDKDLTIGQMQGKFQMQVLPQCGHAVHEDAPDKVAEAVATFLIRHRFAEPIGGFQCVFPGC
In general, IC50 refers to the concentration that inhibits the measured activity by half. For the compound `CS(=O)(=O)/C(C#N)=C/c1cccn1S(=O)(=O)c1ccc(C#N)cc1`, the IC50 was 4 µM.
In the case of `CS(=O)(=O)/C(C#N)=C/c1cccn1S(=O)(=O)c1ccccc1`, the IC50 was 10.8 µM.
As to `CS(=O)(=O)/C(C#N)=C/c1cccn1S(=O)(=O)c1ccc([N+](=O)[O-])cc1`, the half-inhibitory concentration (IC50) was 3 µM.
On to `CC(C)(C)S(=O)(=O)/C(C#N)=C/c1cccn1S(=O)(=O)c1ccccc1`, for which the IC50 was 6.8 µM.
Regarding `CS(=O)(=O)/C(C#N)=C/c1cccn1S(=O)(=O)c1c(F)c(F)c(F)c(F)c1F`, the IC50 is > 20 µM (inactive).
The value for `CS(=O)(=O)/C(C#N)=C/c1cccn1S(=O)(=O)c1cccc(C#N)c1` was 2.5 µM; that for `N#C/C(=C\c1cccn1S(=O)(=O)c1cccc(C#N)c1)S(=O)(=O)c1ccc(F)cc1` was 0.64 µM; that for `CC(C)(C)S(=O)(=O)/C(C#N)=C/c1cccn1S(=O)(=O)c1cccc(C#N)c1` was 3.4 µM.
The same measure for `N#C/C(=C\c1cccn1S(=O)(=O)c1ccccc1)S(=O)(=O)c1ccccc1`: > 20 µM (inactive).
